Data: patent US10967078B2, “Radiolabelled mGluR2 PET ligands” (Janssen Pharmaceutica NV, priority 2014, dated 2021)

Experiments:
mGlu4 = mGlu4 (Homo sapiens, UniProt Q14833); assay: Selectivity for mGluR2 versus mGluR4; format: biochemical
mGlu8 = mGlu8 (Homo sapiens, UniProt O00222); assay: Selectivity for mGluR2 versus mGluR8; format: biochemical
mGlu3 = mGlu3 (Homo sapiens, UniProt Q14832); assay: Selectivity for mGluR2 versus mGluR3; format: biochemical
mGluR2 [1] = target: T1, mGluR2 (Rattus norvegicus, UniProt P31421); assay: In vitro autoradiography binding on normal female Wistar rat brain sections; conditions: in words
T1 construct: horizontal sections of mGluR2 KO and WT mouse brain and of normal female Wistar rat brain; from tissue; host or cells: normal female Wistar rat brain sections, 20 µm
Protocol: (§1) In vitro autoradiography studies were performed on horizontal sections of mGluR2 KO and WT mouse brain and of normal female Wistar rat brain (20 μm). The sections were preincubated in 50 mM Tris-HCl (MgCl2 2 mM, CaCl2 2 mM; pH 7.0) for 10 min (two times) at room temperature and dried. Next, the brain sections were incubated with tracer [^11C]-2, [^11C]-5, [^11C]-4, [^11C]-1 or [^18F]-3 diluted in the same Tris-HCl buffer as used for the preincubation additionally containing 0.1% BSA or with this tracer solution in the presence of 10 μM Co. No. 2 or Co. No. 1. The mouse brain sections were incubated with 17 kBq of carbon-11 labeled tracer and 1.7 kBq of fluorine-18 labeled tracer. For the rat brain sections this was 44 kBq of carbon-11 labeled tracer and 0.44 kBq of fluorine-18 labeled tracer. After 30 min of incubation, the brain sections were washed three times for 5 min in ice-cold Tris-HCl 50 mM ((MgCl2 2 mM, CaCl2 2 mM; pH 7.0+0.1% BSA buffer). After a quick dip in purified ice-cold water, the slides were dried. Autoradiograms were obtained by exposing the slides overnight to a high-performance phosphor storage screen (super-resolution screen; Perkin Elmer, Waltham, USA). The screens were read using a Cyclone Plus system (Perkin Elmer) and analysed using Optiquant software (Perkin Elmer). The radioactivity concentration in the autoradiograms was expressed in digital light units (DLU)/mm^2.
(§2) To obtain additional information on the specificity of the tracer binding to mGluR2, in vitro autoradiography binding studies were performed on mGluR2 KO and WT mouse brain sections and on normal rat brain sections in presence or absence of a high concentration of mGluR2 NAM compounds (Co. No. 1 or Co. No. 2).

[2] = Biodistribution studies in normal female Wistar rats; format: in vivo, rat; conditions: for % ID blood / SUV blood / % ID bone / SUV bone / % ID carcass / % ID cerebellum / SUV cerebellum / SUV cerebrum + cerebellum / % ID cerebrum total / % ID cortex / SUV cortex / % ID heart / % ID hippocampus / SUV hippocampus / % ID intestines / % ID kidneys / % ID liver / % ID lungs / % ID muscle / SUV muscle / % ID rest of cerebrum / SUV rest of cerebrum / % ID spleen + pancreas / % ID stomach / % ID striatum / SUV striatum / % ID urine / SUV whole cerebrum: mean n=3; for SUV cerebrum + cerebellum / Total brain uptake: cerebrum + cerebellum; for Total brain uptake: n=3
Protocol: High-performance liquid chromatography (HPLC) analysis was performed on a LaChrom Elite® HPLC system (Hitachi, Armstadt, Germany) connected to a UV spectrometer. For the analysis of radiolabeled compounds, the HPLC eluate, after passage through the UV detector, was led over a shielded 3-inch NaI(Tl) scintillation detector connected to a single channel analyser (Gabi box, Raytest, Straubenhardt, Germany). The output signal was recorded and analysed using a GINA Star data acquisition system (Raytest, Straubenhardt, Germany). Radioactivity in samples of biodistribution studies was quantified using an automated gamma counter equipped with a 3-inch NaI(Tl) well crystal coupled to a multichannel analyser (Wallac 2480 Wizard, Wallac, Turku, Finland). Results were corrected for background radiation, physical decay and counter dead time. Animals were housed in individually ventilated cages in a thermoregulated (˜22° C.), humidity-controlled facility under a 12 h/12 h light/dark cycle with access to food and water ad libitum. All animal experiments were conducted according to the Belgian code of practice for the care and use of animals, after approval from the local University Ethics Committee for Animals.
Biodistribution studies of [^11C]-2 and [^11C]-1 were carried out in healthy female Wister rats (body weight 185-220 g) at 2 min, 30 min and 60 min post injection (p.i.) (n=3/time point). Rats were injected with about 18 MBq of the tracer via a tail vein under anesthesia (2.5% isoflurane in O2 at 1 L/min flow rate) and sacrificed by decapitation at the above specified time points. Blood and major organs were collected in tared tubes and weighed. The radioactivity in blood, organs and other body parts was measured using an automated gamma counter. For calculation of total blood radioactivity, blood mass was assumed to be 7% of the body mass. For calculation of total muscle and total bone radioactivity, muscle and bone mass were assumed to be 40% and 12% of the body mass, respectively.

mGluR2 [3] = target: T2, mGluR2 (Mus musculus, UniProt Q14BI2); assay: In vitro autoradiography binding on mGluR2 KO and WT mouse brain sections; conditions: for Cortex WT (TB)/cortex WT (block Co. No. 1) / spec binding, cortex WT: WT mouse cortex; for Cortex WT (TB)/cortex WT (block Co. No. 1) / spec binding, cortex WT / Striatum WT (TB)/striatum WT (block Co. No. 1) / spec binding, striatum WT: block with 10 μM Co. No. 1; for Striatum WT (TB)/striatum WT (block Co. No. 1) / spec binding, striatum WT: WT mouse striatum; for difference in tracer binding to WT and mGluR2 KO mouse brain sections: in words; for Cortex WT (TB)/Cortex KO (TB) / Striatum WT (TB)/Striatum KO (TB): total binding ratio, WT versus mGluR2 KO mouse brain sections
T2 construct: horizontal sections of mGluR2 KO and WT mouse brain and of normal female Wistar rat brain; from tissue; host or cells: mouse brain sections (WT and mGluR2 KO), 20 µm
Protocol: as §1, §2

T2 sequence (Q14BI2 19-872): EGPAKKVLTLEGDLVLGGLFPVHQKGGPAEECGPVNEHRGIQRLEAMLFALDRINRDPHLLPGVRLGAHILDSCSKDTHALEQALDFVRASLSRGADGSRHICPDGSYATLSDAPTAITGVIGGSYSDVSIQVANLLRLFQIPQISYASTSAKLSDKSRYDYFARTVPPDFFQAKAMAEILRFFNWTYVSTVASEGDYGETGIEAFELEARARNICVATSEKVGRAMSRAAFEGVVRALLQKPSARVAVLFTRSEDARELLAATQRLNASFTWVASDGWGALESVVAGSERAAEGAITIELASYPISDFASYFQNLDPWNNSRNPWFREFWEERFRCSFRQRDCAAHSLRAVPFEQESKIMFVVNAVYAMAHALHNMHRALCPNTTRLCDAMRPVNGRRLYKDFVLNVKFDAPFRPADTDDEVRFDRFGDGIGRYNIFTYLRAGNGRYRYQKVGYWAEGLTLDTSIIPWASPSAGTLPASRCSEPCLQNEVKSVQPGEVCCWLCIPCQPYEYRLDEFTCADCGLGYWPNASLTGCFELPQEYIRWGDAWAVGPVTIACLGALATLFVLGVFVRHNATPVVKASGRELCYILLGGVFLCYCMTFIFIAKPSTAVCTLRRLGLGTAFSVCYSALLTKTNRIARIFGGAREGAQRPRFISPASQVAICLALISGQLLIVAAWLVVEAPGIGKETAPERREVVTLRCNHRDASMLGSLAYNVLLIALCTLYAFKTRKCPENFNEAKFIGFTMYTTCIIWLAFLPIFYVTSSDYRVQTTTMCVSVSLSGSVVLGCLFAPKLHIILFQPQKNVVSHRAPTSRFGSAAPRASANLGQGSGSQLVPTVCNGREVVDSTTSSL
Chain of mGlu3 (Q14832 23-879): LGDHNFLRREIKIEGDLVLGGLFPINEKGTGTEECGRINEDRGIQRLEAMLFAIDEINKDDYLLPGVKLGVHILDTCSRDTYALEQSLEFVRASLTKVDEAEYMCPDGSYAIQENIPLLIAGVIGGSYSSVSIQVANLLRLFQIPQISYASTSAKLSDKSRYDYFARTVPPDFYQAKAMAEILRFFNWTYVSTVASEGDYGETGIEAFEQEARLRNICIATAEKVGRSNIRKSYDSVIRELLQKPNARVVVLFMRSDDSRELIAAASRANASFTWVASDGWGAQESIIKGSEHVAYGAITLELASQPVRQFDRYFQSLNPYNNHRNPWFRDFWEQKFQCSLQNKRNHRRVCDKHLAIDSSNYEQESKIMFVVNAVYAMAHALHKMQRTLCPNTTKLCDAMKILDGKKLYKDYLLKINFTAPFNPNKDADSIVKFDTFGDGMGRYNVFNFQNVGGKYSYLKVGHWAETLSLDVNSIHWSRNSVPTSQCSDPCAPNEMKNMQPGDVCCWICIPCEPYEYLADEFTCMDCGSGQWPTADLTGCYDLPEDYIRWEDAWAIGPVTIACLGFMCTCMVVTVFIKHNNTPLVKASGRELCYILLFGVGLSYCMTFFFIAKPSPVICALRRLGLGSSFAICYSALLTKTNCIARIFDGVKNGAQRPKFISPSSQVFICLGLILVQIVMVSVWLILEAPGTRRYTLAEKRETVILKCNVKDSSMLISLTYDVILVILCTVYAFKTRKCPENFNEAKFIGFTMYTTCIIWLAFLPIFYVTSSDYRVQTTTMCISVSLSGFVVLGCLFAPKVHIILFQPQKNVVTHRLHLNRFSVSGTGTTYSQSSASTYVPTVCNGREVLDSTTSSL
Chain of mGlu8 (O00222 34-908): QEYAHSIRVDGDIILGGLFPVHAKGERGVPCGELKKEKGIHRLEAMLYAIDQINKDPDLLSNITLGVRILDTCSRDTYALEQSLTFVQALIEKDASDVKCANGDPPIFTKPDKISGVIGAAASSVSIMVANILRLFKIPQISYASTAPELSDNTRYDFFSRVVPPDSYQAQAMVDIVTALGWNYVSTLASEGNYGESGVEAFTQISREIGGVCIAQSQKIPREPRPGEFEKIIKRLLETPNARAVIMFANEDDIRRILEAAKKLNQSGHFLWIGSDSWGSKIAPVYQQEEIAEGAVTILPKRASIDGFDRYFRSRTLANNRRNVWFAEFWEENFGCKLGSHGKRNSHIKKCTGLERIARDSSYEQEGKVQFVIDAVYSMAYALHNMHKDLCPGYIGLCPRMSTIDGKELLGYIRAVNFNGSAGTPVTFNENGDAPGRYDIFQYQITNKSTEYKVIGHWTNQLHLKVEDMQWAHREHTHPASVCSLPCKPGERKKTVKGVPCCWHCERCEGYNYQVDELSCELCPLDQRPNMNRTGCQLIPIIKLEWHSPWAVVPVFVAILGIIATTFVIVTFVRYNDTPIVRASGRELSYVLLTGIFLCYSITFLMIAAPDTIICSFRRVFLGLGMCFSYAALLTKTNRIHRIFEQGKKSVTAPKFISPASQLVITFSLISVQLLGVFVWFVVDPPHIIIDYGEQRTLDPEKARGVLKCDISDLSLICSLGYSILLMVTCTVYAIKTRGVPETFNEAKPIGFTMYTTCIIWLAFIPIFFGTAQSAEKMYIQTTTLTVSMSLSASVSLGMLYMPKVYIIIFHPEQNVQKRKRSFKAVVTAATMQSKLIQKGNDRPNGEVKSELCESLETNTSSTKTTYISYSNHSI
Chain of mGlu4 (Q14833 33-912): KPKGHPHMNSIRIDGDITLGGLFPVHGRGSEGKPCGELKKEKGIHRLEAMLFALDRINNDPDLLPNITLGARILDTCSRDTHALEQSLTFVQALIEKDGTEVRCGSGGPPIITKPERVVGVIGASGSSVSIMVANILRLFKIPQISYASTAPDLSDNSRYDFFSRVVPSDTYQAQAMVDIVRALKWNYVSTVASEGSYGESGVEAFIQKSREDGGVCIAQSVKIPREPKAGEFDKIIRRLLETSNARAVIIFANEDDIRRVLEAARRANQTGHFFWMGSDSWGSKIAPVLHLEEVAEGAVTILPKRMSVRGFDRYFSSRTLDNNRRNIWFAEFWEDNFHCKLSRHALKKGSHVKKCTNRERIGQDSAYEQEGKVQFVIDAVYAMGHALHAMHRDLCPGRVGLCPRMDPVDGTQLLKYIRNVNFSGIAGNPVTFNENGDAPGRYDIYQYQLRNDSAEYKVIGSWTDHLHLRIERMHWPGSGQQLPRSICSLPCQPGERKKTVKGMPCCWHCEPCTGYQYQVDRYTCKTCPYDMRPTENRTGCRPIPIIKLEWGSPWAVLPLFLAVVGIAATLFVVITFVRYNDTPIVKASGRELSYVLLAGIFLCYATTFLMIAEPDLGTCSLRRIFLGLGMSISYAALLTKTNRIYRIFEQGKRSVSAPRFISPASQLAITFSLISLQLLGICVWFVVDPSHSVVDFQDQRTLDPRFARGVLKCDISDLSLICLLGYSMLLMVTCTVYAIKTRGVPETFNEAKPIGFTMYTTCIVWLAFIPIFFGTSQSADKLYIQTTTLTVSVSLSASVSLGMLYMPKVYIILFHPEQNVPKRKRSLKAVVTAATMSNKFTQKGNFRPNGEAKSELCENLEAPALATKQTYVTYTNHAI
T1 sequence (P31421 19-872): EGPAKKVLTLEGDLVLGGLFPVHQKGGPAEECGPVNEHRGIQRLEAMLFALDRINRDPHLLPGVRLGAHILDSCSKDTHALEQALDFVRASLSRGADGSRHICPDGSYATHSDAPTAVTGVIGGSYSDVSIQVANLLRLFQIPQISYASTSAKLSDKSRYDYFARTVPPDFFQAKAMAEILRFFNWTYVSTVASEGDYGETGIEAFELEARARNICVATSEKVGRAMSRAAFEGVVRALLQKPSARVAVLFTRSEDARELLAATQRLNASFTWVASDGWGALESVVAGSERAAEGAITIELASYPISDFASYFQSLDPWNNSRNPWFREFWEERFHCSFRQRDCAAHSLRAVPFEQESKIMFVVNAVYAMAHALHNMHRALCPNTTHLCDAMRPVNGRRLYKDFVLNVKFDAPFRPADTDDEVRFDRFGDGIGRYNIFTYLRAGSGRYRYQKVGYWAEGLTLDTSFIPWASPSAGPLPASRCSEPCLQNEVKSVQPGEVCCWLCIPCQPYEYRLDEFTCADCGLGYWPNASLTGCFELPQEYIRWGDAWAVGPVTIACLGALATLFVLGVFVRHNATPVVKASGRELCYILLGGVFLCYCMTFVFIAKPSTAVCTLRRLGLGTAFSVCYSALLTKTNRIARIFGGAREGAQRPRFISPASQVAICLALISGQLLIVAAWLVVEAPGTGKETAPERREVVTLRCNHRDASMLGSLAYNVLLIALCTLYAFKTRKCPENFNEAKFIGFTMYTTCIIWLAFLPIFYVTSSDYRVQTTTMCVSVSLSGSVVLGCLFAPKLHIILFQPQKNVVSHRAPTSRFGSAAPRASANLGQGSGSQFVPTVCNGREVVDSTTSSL

CNc1cc(-c2cnn3c2C(=O)N(c2ccc(C(F)(F)F)cc2)C[C@@H]3C)ccn1 [Co. No. 2, (7S)-7-Methyl-3-[2-(methylamino)-4-pyridyl]-5-[4-(trifluoromethyl)phenyl]-6,7-dihydropyrazolo[1,5-a]pyrazin-4-one]
Selectivity over mGlu4 (mGlu4): 8709.6 | Selectivity over mGlu8 (mGlu8): 1737.8 | Selectivity over mGlu3 (mGlu3): 44.7

CNc1cc(-c2cnn3c2C(=O)N(c2ccc(C(F)(F)F)c(OC)n2)C[C@@H]3C)ccn1 [Co. No. 5, (7S)-5-[6-Methoxy-5-(trifluoromethyl)-2-pyridyl]-7-methyl-3-[2-(methylamino)-4-pyridyl]-6,7-dihydropyrazolo[1,5-a]pyrazin-4-one]
Selectivity over mGlu3 (mGlu3): 234.4 | melting point: 125.82 °C

C[C@H]1CN(c2ccc(C(F)(F)F)cc2)C(=O)c2c(-c3ccnc([11CH3])c3)cnn21 [[^11C]-1]
total binding to normal rat brain sections (mGluR2 [1]): less pronounced | 2 min - to- 30 min wash-out ratio ([2]; blood): 1.86 | % ID blood ([2]; blood, 2 min p.i.): 6.3 % ID | SUV blood ([2]; blood, 2 min p.i.): 0.90 SUV | % ID blood ([2]; blood, 30 min p.i.): 3.4 % ID | SUV blood ([2]; blood, 30 min p.i.): 0.49 SUV | 2 min - to- 30 min wash-out ratio ([2]; bone): 2.11 | % ID bone ([2]; bone, 2 min p.i.): 5.7 % ID | SUV bone ([2]; bone, 2 min p.i.): 0.48 SUV | % ID bone ([2]; bone, 30 min p.i.): 2.7 % ID | SUV bone ([2]; bone, 30 min p.i.): 0.23 SUV | % ID carcass ([2]; 2 min p.i.): 43.4 % ID | % ID carcass ([2]; 30 min p.i.): 61.5 % ID | 2 min - to- 30 min wash-out ratio ([2]; cerebellum): 2.90 | % ID cerebellum ([2]; cerebellum, 2 min p.i.): 0.340 % ID | SUV cerebellum ([2]; cerebellum, 2 min p.i.): 2.60 SUV | % ID cerebellum ([2]; cerebellum, 30 min p.i.): 0.120 % ID | SUV cerebellum ([2]; cerebellum, 30 min p.i.): 0.90 SUV | SUV cerebrum + cerebellum ([2]; 2 min p.i.): 2.82 SUV | Total brain uptake ([2]; 2 min p.i.): 2.0 % ID | Total brain uptake ([2]; 2 min p.i., listed as [^11C-1]): 2.01 ± 0.24 % ID | SUV cerebrum + cerebellum ([2]; 30 min p.i.): 0.95 SUV | Total brain uptake ([2]; 30 min p.i.): 0.69 ± 0.05 % ID | % ID cerebrum total ([2]; 2 min p.i.): 1.643 % ID | % ID cerebrum total ([2]; 30 min p.i.): 0.567 % ID | 2 min - to- 30 min wash-out ratio ([2]; cortex): 3.22 | % ID cortex ([2]; cortex, 2 min p.i.): 0.131 % ID | SUV cortex ([2]; cortex, 2 min p.i.): 3.51 SUV | % ID cortex ([2]; cortex, 30 min p.i.): 0.039 % ID | SUV cortex ([2]; cortex, 30 min p.i.): 1.09 SUV | % ID heart ([2]; 2 min p.i.): 0.6 % ID | % ID heart ([2]; 30 min p.i.): 0.5 % ID | 2 min - to- 30 min wash-out ratio ([2]; hippocampus): 2.76 | % ID hippocampus ([2]; hippocampus, 2 min p.i.): 0.083 % ID | SUV hippocampus ([2]; hippocampus, 2 min p.i.): 2.41 SUV | % ID hippocampus ([2]; hippocampus, 30 min p.i.): 0.031 % ID | SUV hippocampus ([2]; hippocampus, 30 min p.i.): 0.87 SUV | % ID intestines ([2]; 2 min p.i.): 10.1 % ID | % ID intestines ([2]; 30 min p.i.): 11.1 % ID | % ID kidneys ([2]; 2 min p.i.): 2.9 % ID | % ID kidneys ([2]; 30 min p.i.): 1.6 % ID | % ID liver ([2]; 2 min p.i.): 31.2 % ID | % ID liver ([2]; 30 min p.i.): 14.2 % ID | % ID lungs ([2]; 2 min p.i.): 2.1 % ID | % ID lungs ([2]; 30 min p.i.): 0.9 % ID | 2 min - to- 30 min wash-out ratio ([2]; muscle): 0.61 | % ID muscle ([2]; muscle, 2 min p.i.): 15.1 % ID | SUV muscle ([2]; muscle, 2 min p.i.): 0.38 SUV | % ID muscle ([2]; muscle, 30 min p.i.): 24.9 % ID | SUV muscle ([2]; muscle, 30 min p.i.): 0.62 SUV | 2 min - to- 30 min wash-out ratio ([2]; rest of cerebrum): 3.00 | % ID rest of cerebrum ([2]; rest of cerebrum, 2 min p.i.): 1.286 % ID | SUV rest of cerebrum ([2]; rest of cerebrum, 2 min p.i.): 2.83 SUV | % ID rest of cerebrum ([2]; rest of cerebrum, 30 min p.i.): 0.445 % ID | SUV rest of cerebrum ([2]; rest of cerebrum, 30 min p.i.): 0.94 SUV | % ID spleen + pancreas ([2]; 2 min p.i.): 1.9 % ID | % ID spleen + pancreas ([2]; 30 min p.i.): 1.2 % ID | % ID stomach ([2]; 2 min p.i.): 2.8 % ID | % ID stomach ([2]; 30 min p.i.): 6.4 % ID | 2 min - to- 30 min wash-out ratio ([2]; striatum): 2.68 | % ID striatum ([2]; striatum, 2 min p.i.): 0.143 % ID | SUV striatum ([2]; striatum, 2 min p.i.): 2.58 SUV | % ID striatum ([2]; striatum, 30 min p.i.): 0.052 % ID | SUV striatum ([2]; striatum, 30 min p.i.): 0.97 SUV | % ID urine ([2]; 2 min p.i.): 0.1 % ID | % ID urine ([2]; 30 min p.i.): 0.1 % ID | 2 min - to- 30 min wash-out ratio ([2]; whole cerebrum): 2.98 | SUV whole cerebrum ([2]; whole cerebrum, 2 min p.i.): 2.83 SUV | SUV whole cerebrum ([2]; whole cerebrum, 30 min p.i.): 0.95 SUV | Cortex WT (TB)/cortex WT (block Co. No. 1) (mGluR2 [3]): ~21.5 | spec binding, cortex WT (mGluR2 [3]): (~95% spec | Striatum WT (TB)/striatum WT (block Co. No. 1) (mGluR2 [3]): ~11.8 | spec binding, striatum WT (mGluR2 [3]): (~92% specific | difference in tracer binding to WT and mGluR2 KO mouse brain sections (mGluR2 [3]): significant difference | Cortex WT (TB)/Cortex KO (TB) (mGluR2 [3]): ~7.1 | Striatum WT (TB)/Striatum KO (TB) (mGluR2 [3]): ~3.8

C[C@H]1CN(c2ccc(S(F)(F)(F)(F)F)cc2)C(=O)c2c(-c3ccnc(N[11CH3])c3)cnn21 [[^11C]-4]
Cortex WT (TB)/cortex WT (block Co. No. 1) (mGluR2 [3]): ~3.8 | spec binding, cortex WT (mGluR2 [3]): (~74% spec | Striatum WT (TB)/striatum WT (block Co. No. 1) (mGluR2 [3]): ~2.6 | spec binding, striatum WT (mGluR2 [3]): (~62% spec | difference in tracer binding to WT and mGluR2 KO mouse brain sections (mGluR2 [3]): less pronounced | Cortex WT (TB)/Cortex KO (TB) (mGluR2 [3]): ~2.6 | Striatum WT (TB)/Striatum KO (TB) (mGluR2 [3]): ~2.2

COc1nc(N2C[C@H](C)n3ncc(-c4ccnc(N[11CH3])c4)c3C2=O)ccc1C(F)(F)F [[^11C]-5]
Cortex WT (TB)/cortex WT (block Co. No. 1) (mGluR2 [3]): ~2.4 | spec binding, cortex WT (mGluR2 [3]): (~58% spec | Striatum WT (TB)/striatum WT (block Co. No. 1) (mGluR2 [3]): ~1.9 | spec binding, striatum WT (mGluR2 [3]): (~47% spec | difference in tracer binding to WT and mGluR2 KO mouse brain sections (mGluR2 [3]): less pronounced | Cortex WT (TB)/Cortex KO (TB) (mGluR2 [3]): ~2.6 | Striatum WT (TB)/Striatum KO (TB) (mGluR2 [3]): ~1.9
